Measurements from patent US20240057599A1, “METHODS FOR IMPROVING FRUIT QUALITY” (The State of Israel, Ministry of Agriculture & Rural …, priority 2021, published 2024).

Key:
Assay type in all cases: in vivo
[1] = test system: Mango fruits (Tali and Shelly); experiment: ROS accumulation in injured mango fruits; settings: postharvest 8 mM; injured fruit; vs non-treated injured fruit
Description: FIGS. 31A-31C include a fluorescent micrograph (31A) and vertical bar graphs showing that postharvest treatment of Mango fruits (Tali and Shelly) with 8 mM phenylalanine reduces accumulation of reactive oxygen species (ROS) in the peel (31B) and pulp (31C) of treated injured fruits compared to control injured fruit (non-treated). […] (31A) Visualization conducted 20 minutes post induced injury. (31B-31C) ROS quantification 7 days post induced injury.
Further, the inventors have shown that postharvest treatment as disclosed herein reduces ROS (reactive oxygen species) accumulation in fruit injured postharvest (FIG. 31).

Starking and Anna apples = experiment: Enzymatic browning of sliced apple fruits after preharvest treatment; settings: 0.12%
From the text: FIGS. 29A-29E include micrographs showing the effect of preharvest treatment on decay parameters in Starking (29A-29B) and Anna (29C-29E) apples. In control fruits, enzymatic browning (i.e., oxidation) was highly evident (29A, and 29C).
Further, the inventors have examined the effect of preharvest treatment with phenylalanine on enzymatic browning, i.e., oxidation, in a fruit.

mango fruits [2] = experiment: Red coloration of mango fruits after preharvest treatment; settings: Shelly and Kent; 8 mM, 1 or 2 weeks preharvest
Description: (§1) Mango or apple trees were treated 1 week or 2 weeks pre-harvest with either 8 mM of phenylalanine or with 0.2% prohydrojasmon ('blush'). Fruits were harvested from the external area of the tree, wherein fruits are exposed to the sunlight (photon flux of 1,500±200 μmol·m^-2 sec^-1). After harvest: (a) mango fruits were stored for 3 weeks at 12° C., and for another week at 22° C. (e.g., shelf life); and (b) apple fruits were stored for 3 months at 0° C., and for another week at 22° C. (e.g., shelf life). Surface area of the red color was evaluated as percentage, and red intensity was evaluated on a scale of 0-5. Each mango fruit was assessed for percentage of red surface area on fruit for each treatment at different time points (harvest, after cold storage at 12° C. and after shelf life at 22° C.). Similarly, red intensity was evaluated for each mango fruit using a visual rating scale, where 0=no red color, 1=faint red color, and 5=very intense red color. Fifty fruit were evaluated per treatment. The skin color (hue) of 15 mango fruit was measured for each treatment using a CR-400/410 Chromometer (Konicka Minolta, Osaka, Japan) on the equatorial line of each fruit at the […] point. […] Chlorophyll, anthocyanin, and flavonoid content were measured by the Multiplex III fluorescence detector (Force A, Orsay, France), which consists of 12 fluorescence signals. […]

Mango (Shelly) fruits = experiment: Preharvest spray, red coloration and TSS in mango
From the text: FIGS. 26A-26C include vertical bar graphs showing the effect of preharvest spray treatment on red coloration and TSS in Mango (Shelly) fruits. Red color surface (%; 26A), red color intensity (26B) and TSS (% Brix; 26C) were examined under preharvest treatments with 0.01%, 0.06%, […], or 0.24% phenylalanine (Phe).
(§2) Further, improvement of fruit coloration was also shown in grapes (FIG. 28).

grapes (Skarlota) = experiment: Preharvest spray, red coloration in grapes
From the text: FIG. 28 includes a vertical bar graph showing the effect of preharvest spray treatment on red coloration (represented as index 0-5) in grapes (Skarlota). […] Further, improvement of fruit coloration was also shown in grapes (FIG. 28).

apple fruits (Jonathan) [3] = experiment: Red coloration of apple fruits after preharvest treatment; settings: 8 mM, 1 or 2 weeks preharvest
Description: as §1

apple fruits (Jonathan) [4] = experiment: Sensory analysis and Brix of apple fruits and juice after preharvest treatment
Description: Apple—Apple trees were treated with: 8 mM phenylalanine 1 week or 2 weeks before harvest; or with 0.2 prohydrojasmon (also known as ‘blush’). Fruits were harvested from the external area of the tree. After harvest, fruits were stored for 3 months at 0° C., wherein sensory analysis by a panel of 20 tasters was performed, for both slices fruit and for juice extracted therefrom. Brix values were also determined.

[5] = test system: Red (Memphis) and white (Sifra) potato tubers; experiment: Scratch curing in potato tuber; settings: for scratch curing (scale of 0-3): 8 mM dip 1 min
Description: Red (Memphis) and white (Sifra) potato tubers were dipped in water or 8 mM Phe for 1 min, and dried. The tubers were stored at 20° C. for 2 days. Each tuber was scratched (2 cm length, and 1 cm wide) in 3 spots. One week and 2 weeks later the curing of the scratch was evaluated on a scale of 0-3, the recovery of the red color was evaluated on a scale of 0-3, and the weight loss was measured.

mango fruits [6] = experiment: Sensory analysis by a panel of 20 tasters, mango fruits and juice; settings: for quality of juice extracted from mango fruits: preharvest application, 2020
Description: (§3) Mango—unripe Mango fruits were harvested and dipped in 4-8 mM phenylalanine for a period of 30 seconds. Fruits were stored at 22° C. until ripening (Days 11-15), wherein sensory analysis by a panel of 20 tasters was performed. Further, Brix, and % acidity (calibrated according to citric acid), and firmness (by Newton units) values were determined in 5 different fruits.

[7] = test system: White (Sifra) potato tubers; experiment: Lignin production at the cut (Calcofluor white fluorescence); settings: 8 mM dip, one-week post-treatment, vs control
Description: White (Sifra) potato tubers were dipped in water or 8 mM Phe for 1 min, and dried. The tubers were stored at 20° C. for 2 days. Each tuber was cut (2 cm length, 2 cm deep, 2 mm wide). One week later the curing of the cut was documented.

Mango (Tali) fruits = experiment: Aroma-associated VOC levels in dipped mango fruits; settings: pulp; dipped in 8 mM; 11 days at 22° C.; vs non-treated
Description: FIGS. 30A-30G include vertical bar graphs showing that a […] treatment of mango fruits with 8 mM phenylalanine increases the levels of aroma-associated VOCs. Mango (Tali) fruits were dipped in 8 mM phenylalanine and after 11 days of storage at 22° C. the profile of volatiles in the fruit […] was examined. Concentration of the following volatile aroma substances was examined (presented as μg/gFW): (30A) α-Pinene; (30B) 3-Carene; (30C) D-Limonene; (30D) Gurjunene; (30E) α-Terpinolene; (30F) α-Phellandrene; and (30G) Caryophyllene. Further, the inventors have shown that postharvest treatment as disclosed herein improves fruit aroma. The investors have dipped Mango fruits, and 11 days after storage at 22° C., the levels of aroma-associated VOCs were determined. Indeed, postharvest treatment with an effective amount of phenylalanine induced a significant increase in the levels of all tested VOCs (FIG. 30).

[8] = test system: Apple (Starking Delicious) fruits; experiment: Preharvest spray, red coloration and TSS in apple
Description: FIGS. 27A-27D include vertical bar graphs showing the effect of preharvest spray treatment on red coloration and TSS in Apple (Starking Delicious) fruits. […] In 27D, TSS was evaluated at time 0 (TO), after cold storage (CS), and after time at shelf conditions (e.g., shelf-life (SL)).
as §2

[9] = test system: Red (Memphis) and white (Sifra) potato tubers; experiment: Cut curing in potato tuber; settings: 8 mM dip; for weight loss after cutting: statistically significant 14 days post-treatment
Description: Red (Memphis) and white (Sifra) potato tubers were dipped in water or 8 mM Phe for 1 min, and dried. The tubers were stored at 20° C. for 2 days. Each tuber was cut (2 cm length, 2 cm deep, 2 mm wide) in 3 spots. One week and 2 weeks later the curing of the cut was evaluated on a scale of 0-3, and the weight loss was measured.
Red (Memphis) and white (Sifra) potato tubers were dipped in water or 8 mM Phe for 1 min, and dried. The tubers were stored at 20° C. for 2 days. Each tuber was cut (2 cm length, 2 cm deep, 2 mm wide). Two weeks later the superficial and internal curing were documented.

[10] = test system: Muscat grapes and Petit Verdot grapes; experiment: Sensory analysis and Brix of grapes and juice after preharvest treatment; settings: for Brix values of grapes and/or juice: 8 mM preharvest, vs control
Description: Grapes—Muscat grapes and Petit Verdot grapes were treated with 8 mM phenylalanine for: (i) 1 week or 2 weeks; and (ii) 1 week, 2 weeks, or 3 weeks, before harvest, and their combination, respectively. Sensory analysis by a panel of 20 tasters was performed, for the juice extracted from the fruits, and Brix, and % acidity (calibrated according to citric acid) values were also determined. In the case of muscat grapes, intact fruits were also analyzed (e.g., by the panel, Brix, and % acidity).

mango fruits [11] = experiment: Brix values of mango fruits and juice
Description: as §3

[12] = preharvest, 0.06% by weight (~3 mM) or more
[13] = 0.12% (~6 mM) preharvest spray, compared to 0.01%
[14] = white Muscat grapes, preharvest application, 2020

N[C@@H](Cc1ccccc1)C(=O)O [phenylalanine]
ROS accumulation in the peel [1]: substantially less ROS
ROS accumulation in the pulp [1]: substantially less ROS
enzymatic browning (oxidation) (Starking and Anna apples; Anna apples, 2 weeks or 4 weeks preharvest): effective in reducing enzymatic browning
enzymatic browning (oxidation) (Starking and Anna apples; Starking apples, 2 weeks preharvest): effective in reducing enzymatic browning
formation of red coloration in mango fruits (mango fruits [2]): effectively induce the formation of red coloration
red coloration (red color surface %, red color intensity) (Mango (Shelly) fruits; 0.01% (~0.5 mM) preharvest spray): ineffective
TSS (% Brix) (Mango (Shelly) fruits; 0.01% preharvest spray): no contribution
TSS (Mango (Shelly) fruits; [12]): substantially improved
fruit coloration (Mango (Shelly) fruits; [12]): substantially improved
red coloration (grapes (Skarlota); 0.01% (~0.5 mM) preharvest): ineffective
red color index (0-5) (grapes (Skarlota); [13]): substantially more effective
formation of red coloration in apple fruits (apple fruits (Jonathan) [3]): effectively induce the formation of red coloration
Brix values in apple fruits (apple fruits (Jonathan) [4]; 8 mM preharvest, vs control): greater than the control
sensory quality of apple fruits and/or juice (sweeter, less acidic, better aroma) (apple fruits (Jonathan) [4]; tasters' panel, 8 mM 1 or 2 weeks preharvest, after 3 months at 0° C.): better quality
texture of apple fruits (apple fruits (Jonathan) [4]; tasters' panel, 8 mM preharvest): better texture
weight loss after scratching ([5]; Memphis (red), 8 mM dip): reduced
scratch curing (scale of 0-3) ([5]; Memphis (red), 7 and 14 days post-treatment): significantly improved
color curing, recovery of the red color (scale of 0-3) ([5]; Memphis (red), 8 mM dip, 7 and 14 days post-treatment): significantly improved
scratch curing (scale of 0-3) ([5]; Sifra (white), 7 and 14 days post-treatment): significantly improved
weight loss after scratching ([5]; Sifra (white), 8 mM dip, statistically significant): reduced
quality of juice extracted from mango fruits (mango fruits [6]; Kent): quality improvement
quality of juice extracted from mango fruits (mango fruits [6]; Shelly): quality improvement
sensory quality of mango fruits (sweeter, less acidic, better aroma, firmness, general appreciation) (mango fruits [6]; tasters' panel, postharvest dip 4-8 mM (FIGS. 1-3) or preharvest application (FIGS. 7, 12), vs control): better quality
lignin production (fluorescent intensity) [7]: increased lignin production
level of 3-Carene (Mango (Tali) fruits): significantly elevated
level of Caryophyllene (Mango (Tali) fruits): significantly elevated
level of D-Limonene (Mango (Tali) fruits): significantly elevated
level of Gurjunene (Mango (Tali) fruits): significantly elevated
level of α-Phellandrene (Mango (Tali) fruits): significantly elevated
level of α-Pinene (Mango (Tali) fruits): significantly elevated
level of α-Terpinolene (Mango (Tali) fruits): significantly elevated
TSS (% Brix) ([8]; 0.01% preharvest spray): comparable to negative control
red coloration (red color surface %, red color intensity) ([8]; 0.01% preharvest spray): comparable to negative control
TSS (% Brix) [8, 13]: substantially more effective
red coloration (red color surface %, red color intensity) [8, 13]: substantially more effective
cut curing (scale of 0-3) ([9]; Memphis, 14 days): to a less extent
weight loss after cutting ([9]; Memphis): reduced
internal curing of the cut ([9]; Memphis, two weeks later): improved compared to control
cut curing (scale of 0-3) ([9]; Sifra, 7 and 14 days post-treatment, vs control): improved significantly
weight loss after cutting ([9]; Sifra): reduced
superficial and internal curing of the cut ([9]; Sifra, two weeks later): improved compared to control
Brix values of grapes and/or juice ([10]; Muscat grapes): increased Brix values
Brix values of grapes and/or juice ([10]; Petit Verdot grapes): increased Brix values
quality of juice extracted from grapes ([10]; Petit Verdot grapes, preharvest application, 2020): quality improvement
flavor of grapes [10, 14]: flavor improvement
quality of juice extracted from grapes [10, 14]: quality improvement
Brix values in juice extracted from mango fruits (mango fruits [11]; juice of treated mango fruits vs control (FIGS. 8, 13)): greater than the control
Brix values in mango fruits (mango fruits [11]; treated mango fruits vs control (FIGS. 1-3, 7, 12)): greater than the control
